Here are results for two molecules from patent US9345793B2, “Compounds for binding to the platelet specific glycoprotein IIB/IIIA and their use for imaging of thrombi” (PIRAMAL IMAGING SA, priority 2011, dated 2016).

Series [1] in a line: Plasma protein binding by equilibrium dialysis, monkey plasma. Type of series: in vitro ADME. The following applies: plasma (10% in buffer), Cynomolgus, read-out: Fu (Mari). As to the method: (§1) The determination of the plasma protein binding of compounds was performed by means of an equilibrium dialysis in a 96-well HT plate. Solutions of test compound (0.3 μM and 3 μM) were prepared in buffer (50 mM phosphate buffer) and 10% plasma. A 96 well HT dialysis plate (Teflon) was assembled so that each well was divided in two compartments by a semi-permeable cellulose membrane (regenerated Cellulose, MWCO 12-14K). The phosphate buffer solution (150 μL) was added to one side of the membrane and the plasma solution to the other side (150 μL). The compounds were added to the plasma solution side and were incubated at 37 degree. The unbound fraction of the compound could pass through the membrane and equilibrium between the two sides could be reached (6-8 h, 37° C.). Both solutions were analyzed for each compound (plasma-free and plasma-containing) by LC-MS. Both solutions for each compound were diluted with buffer or plasma to reach the same matrix (10% plasma) for analysis and were precipitated by the addition of methanol. The fraction unbound (Fu) was calculated as the quotient of the equilibrium concentrations of the compound in plasma-free and plasma-containing solution.
Background: In equilibrium dialysis free small molecules cross a membrane that holds back macromolecules.

A further series relates to monkey microsomes. As to the kind of experiment: In vitro metabolic stability in liver microsomes, monkey. The settings on record: Cynomolgus, female, calculated. Type of series: in vitro ADME. The protocol: (§2) The incubation concentration was 0.3 μM. […] The samples were frozen over night at −20° C.
Series [2] is described as follows: Plasma protein binding by equilibrium dialysis, human plasma. Type of series: in vitro ADME. The following applies: plasma (10% in buffer), Caucasian, read-out: Fu (Mari). The protocol:
as §1

A further series deals with Human liver microsomes. As to the kind of experiment: In vitro metabolic stability in liver microsomes, human. Format: in vitro ADME. The following applies: both, 0.3 μM, pH 7.4. As to the method:
as §2

For a further series, the system named is rat microsomes. In words: In vitro metabolic stability in liver microsomes, rat. Format: in vitro ADME. The following applies: Wistar, male, calculated. The protocol:
as §2

Series [3] addresses human GPIIb/IIIa receptor (Homo sapiens (Human), UniProt P05106+P08514). As to the kind of experiment: Affinity assay: displacement of tritiated reference compound from immobilized purified GPIIb/IIIa. Format: binding. As to the method:
Affinity assay: In the first step human GPIIb/IIIa purified from human platelets was immobilized on a 96-well solid plate. After 48 hours the plates were washed and the unspecific binding sites were blocked with Roti®-Block. 2. In the next step, the plates were simultaneously incubated with a tritium labeled known GPIIb/IIIa binder (^3H) mixed with increasing concentrations of the novel small molecule compounds (inhibitor, ^19F). The higher the affinity of the inhibitor, the lower the bound fraction of the tritiated known GPIIb/IIIa binder (^3H) was. The fraction of tritiated compound (^3H), which is not displaced by inhibitor, was measured in a microplate scintillation counter.
Purified human glycoprotein IIb/IIIa (20 mM Tris-HCl, 0.1 M NaCl, 0.1% Triton X-100, 1 mM CaCl2, 0.05% NaN3, 50% Glycerol, pH 7.4) was purchased from Enzyme Research Laboratories Inc. (South Bend, Ind.). The GPIIb/IIIa receptor was diluted in phosphate-buffered saline (Dulbecco's Phosphate Buffered Saline (D-PBS(+)) with calcium and magnesium, GIBCO®, Invitrogen) with 0.01% bovine serum albumin (albumin from bovine serum—lyophilized powder, ≧96%, Sigma).
The GPIIb/IIIa receptor was immobilized 48 hours at least (100 μL per well, 48 to maximum 96 hours) on a 96-well solid plate (Immuno Plate MaxiSorp™, Nunc, Roskilde, Denmark) at 277 K to 280 K and at a concentration of 0.1 μg per well to 1 μg per well. As negative control one row of the plate (n=8) was incubated just with 2% bovine serum albumin (200 μper well, albumin from bovine serum—lyophilized powder, […], Sigma, diluted in D-PBS(+)). After washing three times with the wash buffer (230 μL per well, Dulbecco's Phosphate Buffered Saline (D-PBS (−)) contains no calcium or magnesium, GIBCO®, Invitrogen) residual exposed plastic and unspecific binding sites were blocked by incubating the plate with a special blocking solution (200 μL per well, Roti®-Block, Carl Roth GmbH Co KG, Karlsruhe) containing 2% bovine serum albumin (Albumin from bovine serum—lyophilized powder, ≧96%, Sigma) 1 hour at room temperature.
After washing three times with the wash buffer 50 μL of tritiated reference compound (60 nM, ^3H-labeled compound) and 50 μL of novel compound (inhibitor, ^19F) were simultaneously added to each well and incubated for 1 hour at room temperature. Several concentrations of each novel inhibitor (0.1, 1, 2, 5, 10, 20 50, 100, 200, 500, 1000, 2000, 5000, 10000 and 20000 nM) were investigated. At each concentration of inhibitor a fourfold determination was performed.
The maximum value of tritiated reference compound was determined without addition of inhibitor (n=8). To exclude unspecific binding of ^3H-reference compound wells without glycoprotein receptors were used as negative controls (n=12, identically treated just without GP IIb/IIIa receptors).
After one hour the plate was washed three times with phosphate-buffered saline (200 μL per well, Dulbecco's Phosphate Buffered Saline (D-PBS(+)), GIBCO®, Invitrogen). Following 140 μL of liquid scintillation cocktail (MicroScint™ 40 aqueous, Perkin Elmer) was added to each well. After 15 min at room temperature the plates were measured at the microplate scintillation counter (TopCount NXT v2.13, Perkin Elmer, Packard Instrument Company).
In the first step human glycoprotein IIb/IIIa, which is purified from human platelets, was immobilized on a 96-well solid plate. After 48 hours at least the plates were washed and the unspecific binding sites were blocked with Roti®-Block. In the next step, the plates were simultaneously incubated with a tritium labeled reference compound and the novel small molecule compound (inhibitor). The higher the affinity of the inhibitor, the smaller is the bound fraction of reference compound. The fraction of tritiated reference compound, which is not displaced by inhibitor, was measured at a microplate scintillation counter.

Series [4] in a line: In vitro metabolic stability in liver microsomes, human. Format: in vitro ADME. The following applies: pH 7.4. As to the method:
as §2
For orientation: Microsomes from liver hold many membrane-bound enzymes, among them those of drug oxidation.

Another series deals with mouse microsomes. In words: In vitro metabolic stability in liver microsomes, mouse. Type of series: in vitro ADME. The settings on record: NMRI, female, calculated. As to the method: as §2
Setting [5] is: 19F compounds vs 60 nM 3H-labeled reference compound, 1 hour at room temperature, read-out: IC50 human.
[6] abbreviates: values repeated beside the 18F-compound, read-out: IC50 human (corresponding 19F-compound, Table 2).

pIC50: −log10 of the molar value. Read-outs that look alike come from different tables or passages of the source.

Chain of human GPIIb/IIIa receptor (P08514 32-887): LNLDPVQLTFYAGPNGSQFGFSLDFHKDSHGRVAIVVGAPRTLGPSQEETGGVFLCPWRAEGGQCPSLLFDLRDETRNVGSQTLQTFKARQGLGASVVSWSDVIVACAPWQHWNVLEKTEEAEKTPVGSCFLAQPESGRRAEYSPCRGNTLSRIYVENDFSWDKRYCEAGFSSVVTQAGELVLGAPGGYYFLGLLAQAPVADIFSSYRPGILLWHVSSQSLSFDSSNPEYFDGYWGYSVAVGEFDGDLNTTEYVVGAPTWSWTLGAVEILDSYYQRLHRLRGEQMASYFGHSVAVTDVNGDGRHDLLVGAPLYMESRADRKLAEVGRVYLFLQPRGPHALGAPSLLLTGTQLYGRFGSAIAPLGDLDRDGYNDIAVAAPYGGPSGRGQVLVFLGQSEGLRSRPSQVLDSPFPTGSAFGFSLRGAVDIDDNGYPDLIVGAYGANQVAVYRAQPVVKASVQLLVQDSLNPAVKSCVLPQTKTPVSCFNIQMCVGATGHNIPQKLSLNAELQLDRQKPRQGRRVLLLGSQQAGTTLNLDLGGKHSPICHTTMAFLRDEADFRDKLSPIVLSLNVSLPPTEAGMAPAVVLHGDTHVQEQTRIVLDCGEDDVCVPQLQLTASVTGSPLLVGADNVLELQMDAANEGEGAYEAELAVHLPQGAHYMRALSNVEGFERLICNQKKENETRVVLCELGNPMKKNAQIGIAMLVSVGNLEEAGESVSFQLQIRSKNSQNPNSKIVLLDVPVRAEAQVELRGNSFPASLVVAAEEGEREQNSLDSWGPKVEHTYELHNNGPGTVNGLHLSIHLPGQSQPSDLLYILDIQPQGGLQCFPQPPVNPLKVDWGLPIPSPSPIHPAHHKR
Chain of human GPIIb/IIIa receptor (P08514 891-1039 partner): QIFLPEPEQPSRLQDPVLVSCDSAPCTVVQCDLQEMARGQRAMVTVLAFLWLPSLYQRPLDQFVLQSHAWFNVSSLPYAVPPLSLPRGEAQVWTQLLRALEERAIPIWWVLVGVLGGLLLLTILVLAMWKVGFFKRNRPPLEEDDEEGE
Chain of human GPIIb/IIIa receptor (P05106 27-788): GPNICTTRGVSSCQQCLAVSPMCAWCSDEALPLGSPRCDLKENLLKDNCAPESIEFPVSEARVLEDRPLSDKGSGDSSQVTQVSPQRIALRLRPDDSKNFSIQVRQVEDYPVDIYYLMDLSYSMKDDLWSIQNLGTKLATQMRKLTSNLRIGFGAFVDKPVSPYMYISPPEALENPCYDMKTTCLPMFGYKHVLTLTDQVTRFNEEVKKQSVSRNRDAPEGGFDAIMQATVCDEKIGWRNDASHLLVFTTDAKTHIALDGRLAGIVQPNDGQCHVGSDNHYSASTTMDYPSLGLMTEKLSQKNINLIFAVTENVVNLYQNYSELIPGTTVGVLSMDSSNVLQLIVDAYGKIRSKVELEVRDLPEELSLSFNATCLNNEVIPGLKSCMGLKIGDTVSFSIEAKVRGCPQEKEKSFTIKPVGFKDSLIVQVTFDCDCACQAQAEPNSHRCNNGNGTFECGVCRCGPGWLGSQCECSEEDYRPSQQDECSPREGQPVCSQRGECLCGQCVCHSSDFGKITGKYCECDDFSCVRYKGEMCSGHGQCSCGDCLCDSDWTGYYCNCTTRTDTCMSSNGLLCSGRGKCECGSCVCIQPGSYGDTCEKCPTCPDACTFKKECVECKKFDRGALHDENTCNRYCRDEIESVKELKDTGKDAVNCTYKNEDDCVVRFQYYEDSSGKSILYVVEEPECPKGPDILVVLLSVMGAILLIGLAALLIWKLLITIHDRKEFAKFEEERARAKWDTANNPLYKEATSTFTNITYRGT

For the molecule `O=C(O)C[C@H](NC(=O)[C@@H]1CCCN(C(=O)CCC2CCNCC2)C1)c1cccc(OCCF)c1` [Example 1, (3S)-3-[3-(2-Fluoroethoxy)phenyl]-3-[({(3R)-1-[3-(piperidin-4-yl)propanoyl]piperidin-3-yl}carbonyl)amino]propanoic acid], the fraction unbound at 0.3 μM was 0.99 in series [1] and 0.91 in series [2]. Besides, the fraction unbound at 3 μM in series [1] was 0.93; in series [2], 0.9. Further, the CLblood in the series on monkey microsomes, in the series with Human liver microsomes and with rat microsomes was 2.4 mL/day/kg throughout. Further, the pIC50 in series [3] (setting [5]) and in series [3] (setting [6]) was 7.00 throughout.
For the molecule `O=C(O)C[C@H](NC(=O)[C@@H]1CCCN(C(=O)CCC2CCNCC2)C1)c1cncc(OCCF)c1` [Example 3, (3S)-3-[5-(2-Fluoroethoxy)pyridin-3-yl]-3-[({(3R)-1-[3-(piperidin-4-yl)propanoyl]-piperidin-3-yl}carbonyl)amino]propanoic acid], the fraction unbound at 0.3 μM in series [1] is 1; in series [2], 0.96. Also, the fraction unbound at 3 μM in series [1] and in series [2] was 1 in each case. In addition, the CLblood in the series with monkey microsomes, in the series on Human liver microsomes, with rat microsomes and with mouse microsomes was 2.4 mL/day/kg throughout. Also, the recovery at 60 min, 0.3 μM in series [4] was around 100%. In addition, the negative logarithm of the IC50 (pIC50) in series [3] (setting [5]) and in series [3] (setting [6]) was 7.70 throughout.

As usually defined, the pIC50 is −log10 of the IC50, conventionally taken in molar units.
